The source of these data is patent publication US20260182575A1, “MOLECULES HAVING PESTICIDAL UTILITY AND INTERMEDIATES AND PROCESSES RELATED THERETO” (CORTEVA AGRISCIENCE LLC, priority 2022, published 2026).

Holding throughout (format): in vivo
Test [1] concerns Fall Armyworm (Spodoptera frugiperda, LAPHFR, FAW). The experiment in a line: Bioassay 4: fall armyworm, artificial diet, 128-cell tray. As to conditions: AI alone. In a few lines: (§1)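 Test solutions (0.0000004–0.04% w/v, i.e. 0.00005–5 μg/cm² on diet) were pipetted onto artificial lepidopteran diet and one 2nd-instar larva was placed per cell, 8 replicates per species, held at ~26° C. Live larvae were counted after 5 days; percent control used Abbott's correction against a solvent check.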

In test [2] the test system is Western Flower Thrips (Frankliniella occidentalis, FRANOC, WFT). The test is described as follows: Bioassay 3: western flower thrips, cotton leaf disc dip. As to conditions: for Average % Control AI: 3 days; for Average % Control F1: F1 alone, 3 days after treatment.
For test [3], the system named is Corn Earworm (Helicoverpa zea, HELIZE, CEW). The experiment in a line: Bioassay 4: corn earworm, artificial diet, 128-cell tray. As to conditions: for Average % Control AI: AI alone; for Average % Control F1: F1 alone. In short, it runs like this:
as §1

[4] abbreviates: AI alone at 1:1 rate to F1 3.125 (10^-6 Wt %).
Setting [5] is: AI alone at 1:1 rate to F1 0.78 (10^-6 Wt %).

Where “and” joins values, the source holds several entries; their conditions need not be identical. Equal values may be shown once.

As for `Cc1c(COC(=O)[C@@H]2[C@H](/C=C(\Cl)C(F)(F)F)C2(C)C)cccc1-c1ccccc1` (racemic) [Bifenthrin], the “Average % Control AI” value in test [1] (0.000004 wt %) is listed as 12.5%; in test [1] (0.00004 wt %) it was 12.5%; in test [2] (setting [4]), 11.5%; in test [3] (0.000004 wt %), 0.0%; in test [3] (0.00004 wt %), 0.0%.
In the case of `C[C@]1(COC(=O)C2CC2)[C@@H]2C[C@H](O)[C@@]3(C)Oc4cc(-c5cccnc5)oc(=O)c4[C@H](O)[C@@H]3[C@@]2(C)CC[C@@H]1OC(=O)C1CC1` [Afidopyropen], the “Average % Control AI” value came to 0.0% in test [1] (0.000004 wt %); 0.0% in test [1] (0.00004 wt %); 0.0% in test [2] (AI alone at 1:1 rate to F1 12.5 (10^-6 Wt %)); 5.7% in test [2] (AI alone at 1:1 rate to F1 50 (10^-6 Wt %)); 0.0% in test [3] (0.000004 wt %); 0.0% in test [3] (0.00004 wt %).
Turning to `Cc1ccc(COCC(F)(F)F)c(N2C(=O)CS/C2=N\C(=O)Nc2ccc(-c3ncn(-c4ccc(OC(F)(F)F)cc4)n3)cc2F)c1` [F1], the “Average % Control F1” value is 0.0% and 5.7% in test [2] (Wt % F1 (10^-6) 0.195, cotton leaf disc); 46.0% in test [2] (Wt % F1 (10^-6) 12.5, cotton leaf disc); 79.3% in test [2] (Wt % F1 (10^-6) 50, cotton leaf disc); 0.0% in test [3] (0.0000004 wt %); 75.0% in test [3] (0.00004 wt %).
Consider `CON=CNC(=O)c1ccc(C2=NOC(c3cc(Cl)cc(Cl)c3)(C(F)(F)F)C2)cc1C` (centres unmarked) [Fluxametamide], for which the “Average % Control AI” value in test [1] (0.000004 wt %) is reported as 12.5%; in test [2] (setting [4]), 4.8%; in test [3] (0.000004 wt %), 0.0%; in test [3] (0.00004 wt %), 0.0%.
`COC(=O)N(C(=O)N1CO[C@@]2(C(=O)OC)Cc3cc(Cl)ccc3C2=N1)c1ccc(OC(F)(F)F)cc1` [Indoxacarb]: the “Average % Control AI” value in test [1] (0.000004 wt %), in test [1] (0.00004 wt %), in test [3] (0.000004 wt %), in test [3] (0.00004 wt %) and in test [3] (0.0004 wt %) was 0.0% each time.
Turning to `CC1=NNC(=O)N(/N=C/c2cccnc2)C1` [Pymetrozine], the “Average % Control AI” value amounted to 0.0% in test [1] (0.000004 wt %); 0.0% in test [1] (0.00004 wt %); 21.4% in test [2] (setting [4]); 0.0% in test [3] (0.000004 wt %); 0.0% in test [3] (0.00004 wt %).
`CN1COCN(Cc2cnc(Cl)s2)/C1=N\[N+](=O)[O-]` [Thiamethoxam]: the “Average % Control AI” value is recorded as 0.0% in test [1] (0.000004 wt %); 20.0% in test [2] (AI alone at 1:1 rate to F1 0.195 (10^-6 Wt %)); 20.0% in test [2] (setting [5]); 6.7% in test [2] (setting [4]); 0.0% in test [3] (0.000004 wt %); 0.0% in test [3] (0.00004 wt %).
Chlorfenapyr: the “Average % Control AI” value is 0.0% in test [1] (0.000004 wt %); 37.5% in test [1] (0.00004 wt %); 16.7% in test [2] (setting [5]); 0.0% in test [3] (0.000004 wt %); 12.5% in test [3] (0.00004 wt %).
